Consider twelve compounds from patent publication US9598362B2, “Benzidine derivative, method for preparing same, and pharmaceutical composition containing benzidine derivative for treating liver disease caused by hepatitis C virus” (priority 2013, dated 2017).

One experiment deals with HCV replicon NK/R2AN. In words: Evaluation of anti-HCV activity 2: inhibition of HCV replication, huh7.5.1 cells with replicon NK/R2AN, renilla luciferase. Format: cell-based. The settings on record: for pEC50: Hepatitis C virus; for EC50 (in words): duplicated HCV treated with compound. How it is done:
To evaluate the anti-HCV activity, that is the activity to inhibit HCV replication, of the compound represented by formula 1 of the present invention, the following experiment was performed.
The hepatoma cell line huh7.5.1 having NK/R2AN, the replicon with which the replication and translation of HCV could be measured, was distributed in a 12-well cell culture plate at the density of 50,000 cells/well. The cells were cultured in DMEM (Dulbecco's Modified Eagle's Medium 12800-017, GIBCO Co.) supplemented with 10% (v/v) FBS (Fetal Bovine Serum SH30406.02, Hyclone Co.), 1% (v/v) antibiotics (penicillin/streptomycin solution SV30010, Hyclone Co.), and G418 (600 μg/mL, Calbiochem) in a 37° C. 6.0% CO2 incubator (CO2 Incubator 311, Forma Scientific Co, Lnc. USA) for 24 hours to lead cell attachment on the plate. Then, the cells were inoculated with HCV having renilla luciferase gene as a reporter for 3 hours. Upon completion of the virus inoculation, the cell culture medium was replaced with the medium containing the compounds prepared in Examples 1˜24 were added to the culture medium at the concentrations of 40 pM˜1 μM each. The cells were cultured in a 37° C. 6.0% CO2 incubator (CO2 Incubator 311, Forma Scientific Co, Lnc. USA) for 3 days. Three days after the infection, the cell culture medium was collected to measure the cytotoxicity in the following Experimental Example 3. The cells attached on the plate were washed with PBS (phosphate buffered saline) and then lysed by treating 100 μl of 1× passive lysis buffer (Promega, E1941). The cell lysate (10 μl) was added to renilla luciferase assay reagent (50 μl) in renilla luciferase assay system (Promega, E2820), followed by measurement of luminescence for 10 seconds using the luciferase measure program with Luminometer (GLOMAX 20/20 Luminometer, Promega). At this time, the measurement of luminescence was performed in triplicate with the groups treated with the compounds of Examples 1˜24 and the non-treated control group. The mean value was calculated and compared. The luminescence of each compound over the concentration was converted into EC50 (half maximal effective concentration) by using sigma plot program, and the results are shown in Table 3. At this time, when EC50 was under 100 pM, it was marked as A; when EC50 was in the range of 100 pM 1 nM, it was marked as B; when EC50 was in the range of 1 nM˜100 nM, it was marked as C; and when EC50 was over 100 nM, it was marked as D. The results are shown in Table 3.

The next experiment concerns HCV (JFH-5aFlucm4). In words: Evaluation of anti-HCV activity 1: huh7.5.1 cells inoculated with HCV carrying renilla luciferase reporter. Type of experiment: cell-based. The settings on record: Hepatitis C virus. How it is done:
To evaluate the anti-HCV activity of the compound represented by formula 1 of the present invention, the following experiment was performed.
The hepatoma cell line huh7.5.1 was distributed in a 12-well cell culture plate at the density of 50,000 cells/well. The cells were cultured in DMEM (Dulbecco's Modified Eagle's Medium 12800-017, GIBCO Co.) supplemented with 10% (v/v) FBS (Fetal Bovine Serum SH30406.02, Hyclone Co.) and 1% (v/v) antibiotics (penicillin/streptomycin solution SV30010, Hyclone Co.) in a 37° C. 6.0% CO2 incubator (CO2 Incubator 311, Forma Scientific Co, Lnc. USA) for 24 hours to lead cell attachment on the plate. Then, the cells were inoculated with HCV (JFH-5aFlucm4, PLoS One. 2011; 6(8):e228808.) having renilla luciferase gene as a reporter for 3 hours. Upon completion of the virus inoculation, the cell culture medium was replaced with the medium containing the compounds prepared in Examples 1˜24 at the concentration of 1 μM each. The cells were cultured in a 37° C. 6.0% CO2 incubator (CO2 Incubator 311, Forma Scientific Co, Lnc. USA) for 3 days. Three days after the infection, the cell culture medium was collected to measure the cytotoxicity in the following Experimental Example 3. The cells attached on the plate were washed with PBS (phosphate buffered saline) and then lysed by treating 100 μl of 1× passive lysis buffer (Promega, E1941). The cell lysate (10 μl) was added to renilla luciferase assay reagent (50 μl) in renilla luciferase assay system (Promega, E2820), followed by measurement of luminescence for 10 seconds using the luciferase measure program with Luminometer (GLOMAX 20/20 Luminometer, Promega). At this time, the measurement of luminescence was performed in triplicate with the groups treated with the compounds of Examples 1˜24 and the non-treated control group. The mean value was calculated and compared. The luminescence of each compound over the concentration was converted into EC50 (half maximal effective concentration) by using sigma plot program, and the results are shown in Table 2.

[1] abbreviates: Huh-7.5.1, 72 h, read-out: EC50 grade.
Where [2] appears, read: Huh-7.5.1, replicon huh7.5.1 cells, Table 3, read-out: EC50.

pEC50: −log10 of the molar value. Like-named read-outs stand apart in the source and are kept apart here.

For `COC(=O)N[C@@H](C(=O)N1CCC[C@H]1C(=O)Nc1ccc(-c2ccc(NC(=O)[C@@H]3CCCN3C(=O)[C@H](NC(=O)OC)c3ccccc3)c(C)c2)cc1C)c1ccccc1` [Example 1, dimethyl((1R,1′R)-((2S,2′S)-2,2′-(((3,3′-dimethyl-[1,1′-biphenyl]-4,4′-diyl)bis(azandiyl))bis(carbonyl))bis(pyrrolidine-2,1-diyl))bis(2-oxo-1-phenylethane-2,1-diyl))dicarbamate], the pEC50 (as a rule, the negative decadic logarithm of the EC50, by convention in mol/L) was 7.00 to 9.00 in the experiment on HCV replicon NK/R2AN (setting [1]) and less than 7.00 in the experiment with HCV (JFH-5aFlucm4) (setting [1]).
Turning to `COC(=O)N[C@@H](C(=O)N1CCC[C@H]1C(=O)Nc1ccc(-c2ccc(NC(=O)[C@@H]3CCCN3C(=O)[C@H](NC(=O)OC)c3ccccc3)cc2C(F)(F)F)c(C(F)(F)F)c1)c1ccccc1` [Example 2, dimethyl((1R,1′R)-((2S,2′S)-2,2′-(((2,2′-bis(trifluoromethyl)-[1,1′-biphenyl]-4,4′-diyl)bis(azandiyl))bis(carbonyl))bis(pyrrolidine-2,1-diyl))bis(2-oxo-1-phenylethane-2,1-diyl))dicarbamate], the pEC50 in the experiment on HCV replicon NK/R2AN (setting [1]) was greater than 10.00; in the experiment with HCV replicon NK/R2AN (setting [2]), greater than 10.00; in the experiment on HCV (JFH-5aFlucm4) (Huh-7.5.1), greater than 9.00; with HCV (JFH-5aFlucm4) (setting [1]) it was greater than 9.00. For the same compound, in the experiment with HCV replicon NK/R2AN, the “EC50 (in words)” value is given as “significantly low”.
In the case of `COC(=O)N[C@@H](C(=O)N1CCC[C@H]1C(=O)Nc1ccc(-c2ccc(NC(=O)[C@@H]3CCCN3C(=O)[C@H](NC(=O)OC)c3ccccc3)cc2C)c(C)c1)c1ccccc1` [Example 3, dimethyl((1R,1′R)-((2S,2′S)-2,2′-(((2,2′-dimethyl-[1,1′-biphenyl]-4,4′-diyl)bis(azandiyl))bis(carbonyl))bis(pyrrolidine-2,1-diyl))bis(2-oxo-1-phenylethane-2,1-diyl))dicarbamate], the negative logarithm of the EC50 (pEC50) in the experiment on HCV replicon NK/R2AN (setting [1]) is greater than 10.00; in the experiment on HCV replicon NK/R2AN (setting [2]) it was greater than 10.00; with HCV (JFH-5aFlucm4) (Huh-7.5.1), greater than 9.00; in the experiment on HCV (JFH-5aFlucm4) (setting [1]), greater than 9.00. In the experiment on HCV replicon NK/R2AN, the “EC50 (in words)” value is “significantly low”.
As for `COC(=O)N[C@@H](C(=O)N1CCC[C@H]1C(=O)Nc1ccc2c(c1)Cc1cc(NC(=O)[C@@H]3CCCN3C(=O)[C@H](NC(=O)OC)c3ccccc3)ccc1-2)c1ccccc1` [Example 4, dimethyl((1R,1′R)-((2S,2′S)-2,2′-(((9H-fluorene-2,7-diyl)bis(azandiyl))bis(carbonyl))bis(pyrrolidine-2,1-diyl))bis(2-oxo-1-phenylethane-2,1-diyl))dicarbamate], the pEC50 with HCV replicon NK/R2AN (Huh-7.5.1) is greater than 10.00; in the experiment on HCV replicon NK/R2AN (setting [1]), greater than 10.00; in the experiment with HCV (JFH-5aFlucm4) (setting [1]), 7.00 to 9.00. Moreover, in the experiment with HCV replicon NK/R2AN, the “EC50 (in words)” value is listed as “significantly low”.
Regarding `COC(=O)N[C@@H](C(=O)N1CCC[C@H]1C(=O)Nc1ccc(-c2ccc(NC(=O)[C@@H]3CCCN3C(=O)[C@H](NC(=O)OC)c3ccccc3)cc2F)c(F)c1)c1ccccc1` [Example 5, dimethyl((1R,1′R)-((2S,2′S)-2,2′-(((2,2′-difluoro-[1,1′-biphenyl]-4,4′-diyl)bis(azandiyl))bis(carbonyl))bis(pyrrolidine-2,1-diyl))bis(2-oxo-1-phenylethane-2,1-diyl))dicarbamate], the pEC50 was greater than 10.00 in the experiment on HCV replicon NK/R2AN (setting [1]), greater than 10.00 with HCV replicon NK/R2AN (setting [2]), greater than 9.00 with HCV (JFH-5aFlucm4) (Huh-7.5.1) and greater than 9.00 with HCV (JFH-5aFlucm4) (setting [1]). Moreover, in the experiment with HCV replicon NK/R2AN, the “EC50 (in words)” value is “significantly low”.
As to `COC(=O)N[C@@H](C(=O)N1CCC[C@H]1C(=O)Nc1ccc(-c2ccc(NC(=O)[C@@H]3CCCN3C(=O)[C@H](NC(=O)OC)c3ccccc3)cc2Cl)c(Cl)c1)c1ccccc1` [Example 6, dimethyl((1R,1′R)-((2S,2′S)-2,2′-(((2,2′-dichloro-[1,1′-biphenyl]-4,4′-diyl)bis(azandiyl))bis(carbonyl))bis(pyrrolidine-2,1-diyl))bis(2-oxo-1-phenylethane-2,1-diyl))dicarbamate], the negative-log EC50 (pEC50) in the experiment with HCV replicon NK/R2AN (setting [1]) was greater than 10.00; in the experiment on HCV replicon NK/R2AN (setting [2]), greater than 10.00; in the experiment with HCV (JFH-5aFlucm4) (Huh-7.5.1), greater than 9.00; in the experiment on HCV (JFH-5aFlucm4) (setting [1]) it was greater than 9.00. In the experiment with HCV replicon NK/R2AN, the “EC50 (in words)” value is given as “significantly low”.
`COC(=O)N[C@@H](C(=O)N1CCC[C@H]1C(=O)Nc1ccc(-c2ccc(NC(=O)[C@@H]3CCCN3C(=O)[C@H](NC(=O)OC)c3ccccc3)cc2Br)c(Br)c1)c1ccccc1` [Example 7, dimethyl((1R,1′R)-((2S,2′S)-2,2′-(((2,2′-dibromo-[1,1′-biphenyl]-4,4′-diyl)bis(azandiyl))bis(carbonyl))bis(pyrrolidine-2,1-diyl))bis(2-oxo-1-phenylethane-2,1-diyl))dicarbamate]: the pEC50 in the experiment with HCV replicon NK/R2AN (setting [1]) is greater than 10.00; in the experiment with HCV replicon NK/R2AN (setting [2]), greater than 10.00; in the experiment with HCV (JFH-5aFlucm4) (Huh-7.5.1) it was greater than 9.00; with HCV (JFH-5aFlucm4) (setting [1]), greater than 9.00. In the experiment with HCV replicon NK/R2AN, the “EC50 (in words)” value is on record as “significantly low”.
As for `COC(=O)N[C@@H](C(=O)N1CCC[C@H]1C(=O)Nc1ccc(-c2ccc(NC(=O)[C@@H]3CCCN3C(=O)[C@H](NC(=O)OC)C(C)C)cc2)cc1)C(C)C` [Example 13, dimethyl(2R,2′R)-1,1′-((2S,2′S)-2,2′-(biphenyl-4,4′-diylbis(azandiyl))bis(oxomethylene)bis(pyrrolidine-2,1-diyl))bis(3-methyl-1-oxobutane-2,1-diyl)dicarbamate], the pEC50 in the experiment on HCV (JFH-5aFlucm4) (setting [1]) is less than 7.00.
For `O=C(Nc1ccc(-c2ccc(NC(=O)[C@@H]3CCCN3C(=O)[C@H]3CCCO3)cc2)cc1)[C@@H]1CCCN1C(=O)[C@H]1CCCO1` [Example 17], the negative logarithm of the EC50 (pEC50) with HCV (JFH-5aFlucm4) (setting [1]) is less than 7.00.
Same read-out and setting: the same measure for `COC(=O)N[C@@H](C)C(=O)N1CCC[C@H]1C(=O)Nc1ccc(-c2ccc(NC(=O)[C@@H]3CCCN3C(=O)[C@H](C)NC(=O)OC)cc2)cc1` [Example 18, dimethyl(2S,2′S)-1,1′-((2S,2′R)-2,2′-(biphenyl-4,4′-diylbis(azandiyl))bis(oxomethylene)bis(pyrrolidine-2,1-diyl))bis(1-oxopropane-2,1-diyl)dicarbamate]: less than 7.00.
The same measure, in the same setting: in the case of `COC(=O)N[C@H](C(=O)N1CCC[C@H]1C(=O)Nc1ccc(-c2ccc(NC(=O)[C@@H]3CCCN3C(=O)[C@@H](NC(=O)OC)C(C)(C)C)cc2)cc1)C(C)(C)C` [Example 19, dimethyl(2S,2′S)-1,1′-((2S,2′R)-2,2′-(biphenyl-4,4′-diylbis(azandiyl))bis(oxomethylene)bis(pyrrolidine-2,1-diyl))bis(3,3-dimethyl-1-oxobutane-2,1-diyl)dicarbamate] it was 7.00 to 9.00; in that of `COC(=O)N[C@H](C(=O)N1CCC[C@H]1C(=O)Nc1ccc(-c2ccc(NC(=O)[C@@H]3CCCN3C(=O)[C@@H](NC(=O)OC)C(C)C)cc2)cc1)C(C)C` [Example 20, dimethyl(2S,2′S)-1,1′-((2S,2′R)-2,2′-(biphenyl-4,4′-diylbis(azandiyl))bis(oxomethylene)bis(pyrrolidine-2,1-diyl))bis(3-methyl-1-oxobutane-2,1-diyl)dicarbamate], less than 7.00.
